Read-outs that look alike come from different tables or passages of the source.
Assays:
[1] = tested on: PhoA secretion in E. coli strain BL21 (pLysS); assay: Luminescence-based HTS assay of in vivo PhoA secretion; format: cell-based; conditions: Escherichia coli, BL21, luminescence-based HTS assay, E. coli BL21; read-out: Inhibition of PhoA Secretion IC50, HTS
[2] = tested on: PhoA secretion in BW25113ΔtolC; assay: Lab-scale p-nitrophenyl PhoA secretion assay, ΔtolC strain; format: cell-based, E. coli
[3] = tested on: E. coli BW25113; assay: Antimicrobial activity test (growth, OD600); format: cell-based; conditions: Escherichia coli, 20 h, 37 °C, read-out: Bacterial Viability IC50, E. coli BW25113
[4] = tested on: Mycobacterium abscessus ATCC19977; assay: Antimicrobial activity test (growth, OD600); format: cell-based; conditions: Mycobacteroides abscessus, read-out: Bacterial Viability (IC50)
[5] = tested on: Enterococcus faecium ATCC 804B; assay: Antimicrobial activity test (growth, OD600); format: cell-based; conditions: ATCC804B, read-out: Bacterial Viability (IC50)
[6] = tested on: Campylobacter jejuni; assay: Antimicrobial activity test (growth, OD600); format: cell-based; conditions: read-out: Bacterial Viability (IC50)
[7] = tested on: Streptococcus pneumoniae; assay: Antimicrobial activity test (growth, OD600); format: cell-based; conditions: read-out: Bacterial Viability (IC50)
[8] = tested on: Haemophilus influenzae; assay: Antimicrobial activity test (growth, OD600); format: cell-based; conditions: read-out: Bacterial Viability (IC50)
[9] = tested on: Gram-negative and Gram-positive bacteria; assay: Antimicrobial activity test, summary over Gram-negative and Gram-positive bacteria; format: cell-based; conditions: for Antibacterial character: 19 Gram-negative and Gram-positive species evaluated; for IC50: summary over species, read-out: Viability of Gram-negative and Gram-positive bacteria IC50 (range over species)
[10] = Escherichia coli, read-out: Inhibition of PhoA Secretion IC50, Lab-Scale (ΔtolC strain), BW25113ΔtolC, p-nitrophenyl assay
[11] = Escherichia coli, read-out: Inhibiton of PhoA secretion in ΔtolC strain (Lab-scale) IC50, selection threshold of the screening pipeline, Figure 1B

Row | Compound | IC50 [1] [µM] | IC50 [2, 10] [µM] | IC50 [2, 11] [µM] | IC50 ([2]; read-out: Inhibition of PhoA Secretion IC50, Lab-Scale (ΔtolC strain), BW25113ΔtolC, p-nitrophenyl assay) [µM] | IC50 [3] [µM] | IC50 [4] [µM] | IC50 [5] [µM] | IC50 [6] [µM] | IC50 [7] [µM] | IC50 [8] [µM] | Antibacterial character [9] | IC50 [9] [µM]
1 | O=C(/C=C/c1csnn1)c1ccccc1Cl [HSI#01] | 11.9 | 1.37 | < 2 | 1.4 | > 100 | 33.8 | 34.5 | > 100 | 77.8 | > 100 | bacteriocidal | 1 to 37
2 | O=C(/C=C/c1csnn1)c1cc(Cl)ccc1Cl [HSI#05] | 35.2 | 0.94 | < 2 | – | > 100 | 17.9 | 9.4 | > 100 | 29.7 | > 100 | bacteriocidal | 1 to 37
3 | O=C(/C=C/c1csnn1)c1cccc2ccccc12 [HSI#10] | 20 | 0.99 | < 2 | – | > 100 | 21.8 | 23.5 | > 100 | 60.9 | > 100 | bacteriocidal | 1 to 37

Source: PMC8000395, “Effective Small Molecule Antibacterials from a Novel Anti-Protein Secretion Screen” (Microorganisms, 2021)
